Biological target: AMPK
Test: AMPK activation, enzyme-linked immunosorbent assay
Format: biochemical
Settings: Table 2, AMPK activation, ELISA
Experimental: Compounds 1-50 of Table 1 were assayed for their ability to activate AMPK using an enzyme-linked immunosorbent assay.
Compounds 51-60 of Table 1 were assayed for their ability to activate AMPK using an enzyme-linked immunosorbent assay.
Compounds 61-131 of Table 1 were assayed for their ability to activate AMPK using an enzyme-linked immunosorbent assay.
Compounds 137-141 and 143-155 of Table 1 were assayed for their ability to activate AMPK using an enzyme-linked immunosorbent assay.
Compounds 156-160 of Table 1 were assayed for their ability to activate AMPK using an enzyme-linked immunosorbent assay.

SMILES	EC50
N#Cc1ccc(N2CCC(Oc3ccc(C(=O)NC4CCN(Cc5ccncc5)CC4)nc3)CC2)cc1 [Compound 1, 5-(1-(4-cyanophenyl)piperidin-4-yloxy)-N-(1-(pyridin-4-ylmethyl)piperidin-4-yl)picolinamide]	100 to 500 nM
N#Cc1ccc(CN2CCC(NC(=O)c3ccc(OC4CCN(c5ccc(C#N)cc5)CC4)cn3)CC2)cc1 [Compound 2, N-(1-(4-cyanobenzyl)piperidin-4-yl)-5-(1-(4-cyanophenyl)piperidin-4-yloxy)picolinamide]	< 100 nM
O=C(NC1CCN(Cc2ccncc2)CC1)c1ccc(OC2CCN(c3ccc(C(F)(F)F)cc3)CC2)cn1 [Compound 3, N-(1-(pyridin-4-ylmethyl)piperidin-4-yl)-5-(1-(4-(trifluoromethyl)phenyl)piperidin-4-yloxy)picolinamide]	< 100 nM
N#Cc1ccc(CN2CCC(NC(=O)c3ccc(OC4CCN(c5ccc(C(F)(F)F)cc5)CC4)cn3)CC2)cc1 [Compound 4, N-(1-(4-cyanobenzyl)piperidin-4-yl)-5-(1-(4-(trifluoromethyl)phenyl)piperidin-4-yloxy)picolinamide]	< 100 nM
O=C(NC1CCN(Cc2cccnc2)CC1)c1ccc(OC2CCN(c3ccc(C(F)(F)F)cc3)CC2)cn1 [Compound 5, N-(1-(pyridin-3-ylmethyl)piperidin-4-yl)-5-(1-(4-(trifluoromethyl)phenyl)piperidin-4-yloxy)picolinamide]	< 100 nM
N#Cc1ccc(N2CCC(Oc3ccc(C(=O)NC4CCN(Cc5cccnc5)CC4)nc3)CC2)cc1 [Compound 6, N-(1-(pyridin-3-ylmethyl)piperidin-4-yl)-5-(1-(4-cyanophenyl)piperidin-4-yloxy)picolinamide]	100 to 500 nM
COC(=O)c1ccc(CN2CCC(NC(=O)c3ccc(OC4CCN(c5ccc(C#N)cc5)CC4)cn3)CC2)cc1 [Compound 7, methyl 4-((4-(5-(1-(4-cyanophenyl)piperidin-4-yloxy)picolinamido)piperidin-1-yl)methyl)benzoate]	< 100 nM
COC(=O)c1ccc(CN2CCC(NC(=O)c3ccc(OC4CCN(c5ccc(C(F)(F)F)cc5)CC4)cn3)CC2)cc1 [Compound 8, methyl 4-((4-(5-(1-(4-(trifluoromethyl)phenyl)piperidin-4-yloxy)picolinamido)piperidin-1-yl)methyl)benzoate]	< 100 nM
CC(C)(C)OC(=O)N1CCC(NC(=O)c2ccc(OC3CCN(c4ccc(C(F)(F)F)cc4)CC3)nc2)CC1 [Compound 9, tert-butyl 4-(6-(1-(4-(trifluoromethyl)phenyl)piperidin-4-yloxy)nicotinamido) piperidine-1-carboxylate]	100 to 500 nM
O=C(NC1CCN(Cc2ccncc2)CC1)c1ccc(OC2CCN(c3ccc(C(F)(F)F)cc3)CC2)nc1 [Compound 10, N-(1-(pyridin-4-ylmethyl)piperidin-4-yl)-6-(1-(4-(trifluoromethyl)phenyl)piperidin-4-yloxy)nicotinamide]	< 100 nM
O=C(NC1CCN(Cc2ccc(F)cc2)CC1)c1ccc(OC2CCN(c3ccc(C(F)(F)F)cc3)CC2)nc1 [Compound 11, N-(1-(4-fluorobenzyl)piperidin-4-yl)-6-(1-(4-(trifluoromethyl)phenyl)piperidin-4-yloxy)nicotinamide]	< 100 nM
CC(C)(C)OC(=O)N1CCC(NC(=O)c2cc(OC3CCN(c4ccc(C(F)(F)F)cc4)CC3)ccn2)CC1 [Compound 12, tert-butyl 4-(4-(1-(4-(trifluoromethyl)phenyl)piperidin-4-yloxy)picolinamido) piperidine-1-carboxylate]	500 to 1000 nM
O=C(NC1CCN(Cc2ccncc2)CC1)c1cc(OC2CCN(c3ccc(C(F)(F)F)cc3)CC2)ccn1 [Compound 13, N-(1-(pyridin-4-ylmethyl)piperidin-4-yl)-4-(1-(4-(trifluoromethyl)phenyl)piperidin-4-yloxy)picolinamide]	100 to 500 nM
O=C(NC1CCN(Cc2ccncc2)CC1)c1cncc(OC2CCN(c3ccc(C(F)(F)F)cc3)CC2)c1 [Compound 14, N-(1-(pyridin-4-ylmethyl)piperidin-4-yl)-5-(1-(4-(trifluoromethyl)phenyl)piperidin-4-yloxy)nicotinamide]	< 100 nM
CC(C)(C)OC(=O)N1CCC(NC(=O)c2ccnc(OC3CCN(c4ccc(C(F)(F)F)cc4)CC3)c2)CC1 [Compound 15, tert-butyl 4-(2-(1-(4-(trifluoromethyl)phenyl)piperidin-4-yloxy)isonicotinamido) piperidine-1-carboxylate]	1000 to 5000 nM
O=C(NC1CCN(Cc2ccc(F)cc2)CC1)c1cncc(OC2CCN(c3ccc(C(F)(F)F)cc3)CC2)c1 [Compound 16, N-(1-(4-fluorobenzyl)piperidin-4-yl)-5-(1-(4-(trifluoromethyl)phenyl)piperidin-4-yloxy)nicotinamide]	< 100 nM
N#Cc1ccc(CN2CCC(NC(=O)c3cncc(OC4CCN(c5ccc(C(F)(F)F)cc5)CC4)c3)CC2)cc1 [Compound 17, N-(1-(4-cyanobenzyl)piperidin-4-yl)-5-(1-(4-(trifluoromethyl)phenyl)piperidin-4-yloxy)nicotinamide]	< 100 nM

SMILES	EC50
O=C(NC1CCN(Cc2cccnc2)CC1)c1cncc(OC2CCN(c3ccc(C(F)(F)F)cc3)CC2)c1 [Compound 18, N-(1-(pyridin-3-ylmethyl)piperidin-4-yl)-5-(1-(4-(trifluoromethyl)phenyl)piperidin-4-yloxy)nicotinamide]	< 100 nM
O=C(NC1CCNCC1)c1ccnc(OC2CCN(c3ccc(C(F)(F)F)cc3)CC2)c1 [Compound 19, N-(piperidin-4-yl)-2-(1-(4-(trifluoromethyl)phenyl)piperidin-4-yloxy)isonicotinamide]	1000 to 5000 nM
O=C(NC1CCN(Cc2ccncc2)CC1)c1ccnc(OC2CCN(c3ccc(C(F)(F)F)cc3)CC2)c1 [Compound 20, N-(1-(pyridin-4-ylmethyl)piperidin-4-yl)-2-(1-(4-(trifluoromethyl)phenyl)piperidin-4-yloxy)isonicotinamide]	500 to 1000 nM
N#Cc1ccc(CN2CCC(NC(=O)c3ccnc(OC4CCN(c5ccc(C(F)(F)F)cc5)CC4)c3)CC2)cc1 [Compound 21, N-(1-(4-cyanobenzyl)piperidin-4-yl)-2-(1-(4-(trifluoromethyl)phenyl)piperidin-4-yloxy)isonicotinamide]	100 to 500 nM
O=C(NC1CCN(Cc2ccc(F)cc2)CC1)c1ccnc(OC2CCN(c3ccc(C(F)(F)F)cc3)CC2)c1 [Compound 22, N-(1-(4-fluorobenzyl)piperidin-4-yl)-2-(1-(4-(trifluoromethyl)phenyl)piperidin-4-yloxy)isonicotinamide]	1000 to 5000 nM
CC(C)(C)OC(=O)N1CC[C@@H](NC(=O)c2ccc(OC3CCN(c4ccc(C(F)(F)F)cc4)CC3)cn2)C1 [Compound 23, (R)-tert-butyl 3-(5-(1-(4-(trifluoromethyl)phenyl)piperidin-4-yloxy)picolinamido) pyrrolidine-1-carboxylate]	100 to 500 nM
O=C(N[C@@H]1CCNC1)c1ccc(OC2CCN(c3ccc(C(F)(F)F)cc3)CC2)cn1 [Compound 24, (R)-N-(pyrrolidin-3-yl)-5-(1-(4-(trifluoromethyl)phenyl)piperidin-4-yloxy)picolinamide]	5000 to 10000 nM
O=C(N[C@@H]1CCN(Cc2ccncc2)C1)c1ccc(OC2CCN(c3ccc(C(F)(F)F)cc3)CC2)cn1 [Compound 25, (R)-N-(1-(pyridin-4-ylmethyl)pyrrolidin-3-yl)-5-(1-(4-(trifluoromethyl)phenyl)piperidin-4-yloxy)picolinamide]	100 to 500 nM
CC(C)(C)OC(=O)N1CC[C@H](NC(=O)c2ccc(OC3CCN(c4ccc(C(F)(F)F)cc4)CC3)cn2)C1 [Compound 26, (S)-tert-butyl 3-(5-(1-(4-(trifluoromethyl)phenyl)piperidin-4-yloxy)picolinamido) pyrrolidine-1-carboxylate]	100 to 500 nM
O=C(N[C@H]1CCNC1)c1ccc(OC2CCN(c3ccc(C(F)(F)F)cc3)CC2)cn1 [Compound 27, (S)-N-(pyrrolidin-3-yl)-5-(1-(4-(trifluoromethyl)phenyl)piperidin-4-yloxy)picolinamide]	> 10000 nM
N#Cc1ccc(CN2CCC(NC(=O)c3cc(OC4CCN(c5ccc(C(F)(F)F)cc5)CC4)ccn3)CC2)cc1 [Compound 28, N-(1-(4-cyanobenzyl)piperidin-4-yl)-4-(1-(4-(trifluoromethyl)phenyl)piperidin-4-yloxy)picolinamide]	< 100 nM
O=C(NC1CCN(Cc2ccc(F)cc2)CC1)c1cc(OC2CCN(c3ccc(C(F)(F)F)cc3)CC2)ccn1 [Compound 29, N-(1-(4-fluorobenzyl)piperidin-4-yl)-4-(1-(4-(trifluoromethyl)phenyl)piperidin-4-yloxy)picolinamide]	100 to 500 nM
O=C(N[C@H]1CCN(Cc2ccncc2)C1)c1ccc(OC2CCN(c3ccc(C(F)(F)F)cc3)CC2)cn1 [Compound 30, (S)-N-(1-(pyridin-4-ylmethyl)pyrrolidin-3-yl)-5-(1-(4-(trifluoromethyl)phenyl)piperidin-4-yloxy)picolinamide]	< 100 nM
N#Cc1ccc(CN2CC[C@H](NC(=O)c3ccc(OC4CCN(c5ccc(C(F)(F)F)cc5)CC4)cn3)C2)cc1 [Compound 31, (S)-N-(1-(4-cyanobenzyl)pyrrolidin-3-yl)-5-(1-(4-(trifluoromethyl)phenyl)piperidin-4-yloxy)picolinamide]	< 100 nM
O=C(N[C@H]1CCN(Cc2ccc(F)cc2)C1)c1ccc(OC2CCN(c3ccc(C(F)(F)F)cc3)CC2)cn1 [Compound 32, (S)-N-(1-(4-fluorobenzyl)pyrrolidin-3-yl)-5-(1-(4-(trifluoromethyl)phenyl)piperidin-4-yloxy)picolinamide]	100 to 500 nM
N#Cc1ccc(CN2CC[C@@H](NC(=O)c3ccc(OC4CCN(c5ccc(C(F)(F)F)cc5)CC4)cn3)C2)cc1 [Compound 33, (R)-N-(1-(4-cyanobenzyl)pyrrolidin-3-yl)-5-(1-(4-(trifluoromethyl)phenyl)piperidin-4-yloxy)picolinamide]	500 to 1000 nM

Source: patent publication US9174964B2, “AMPK-activating piperidinyloxy-substituted 2,3-dihydro-1H-indene-1-amine compounds and pharmaceutical compositions including the same” (Rigel Pharmaceuticals, Inc., priority 2007, dated 2015)
